Like-named read-outs stand apart in the source and are kept apart here.
How the values were obtained:
[1] = Global PBPK model fitted to mouse plasma and tissue PK data; type: in vivo, mice; settings: for Nonspecific binding (NSti): mice, model estimate
[2] = Kidney (renal clearance CLr); fixed to reported GFR value in mice; cited from earlier work
[3] = monkeys; cited from earlier work
[4] = tested on: plasma proteins; settings: cited from earlier work
[5] = type: in vivo, BALB/c mice; settings: male, BALB/c, mouse, iv
[6] = tested on: enzymes responsible for its elimination; settings: cited from earlier work

- Nonspecific binding (NSti) ([1]; Bone): 1.06
- Nonspecific binding (NSti) ([1]; Erythrocyte): 7.57
- Nonspecific binding (NSti) ([1]; Kidney): 9.60
- Nonspecific binding (NSti) ([1]; Liver): 1.54
- Nonspecific binding (NSti) ([1]; Lung): 2.54
- Nonspecific binding (NSti) ([1]; Muscle): 1.17
- Nonspecific binding (NSti) ([1]; Remainder compartment): 96.76
- Nonspecific binding (NSti) ([1]; Spleen): 3.68
- clearance ([1]; male, BALB/c, mouse, liver, intravenous): 0.0063 mL/min
- AUC(0-inf) ([5]; bone, 0.25 mg/kg): 23.7 µM·h
- Kp ([5]; bone, 0.25 mg/kg): 26.9
- half-life ([5]; bone, 0.25 mg/kg): 277 h
- AUC(0-inf) ([5]; bone, 1 mg/kg): 27.2 µM·h
- Kp ([5]; bone, 1 mg/kg): 1.4
- half-life ([5]; bone, 1 mg/kg): 173 h
- AUC(0-inf) ([5]; kidney, 0.25 mg/kg): 24.7 µM·h
- half-life ([5]; kidney, 0.25 mg/kg): 59 h
- AUC(0-inf) ([5]; kidney, 1 mg/kg): 180 µM·h
- half-life ([5]; kidney, 1 mg/kg): 204 h
- AUC(0-inf) ([5]; liver, 0.25 mg/kg): 17 µM·h
- half-life ([5]; liver, 0.25 mg/kg): 69 h
- AUC(0-inf) ([5]; liver, 1 mg/kg): 33.3 µM·h
- half-life ([5]; liver, 1 mg/kg): 105 h
- AUC(0-inf) ([5]; lung, 0.25 mg/kg): 39.3 µM·h
- Kp ([5]; lung, 0.25 mg/kg): 44.7
- half-life ([5]; lung, 0.25 mg/kg): 178 h
- AUC(0-inf) ([5]; lung, 1 mg/kg): 60.9 µM·h
- Kp ([5]; lung, 1 mg/kg): 3.1
- half-life ([5]; lung, 1 mg/kg): 133 h
- AUC(0-inf) ([5]; muscle, 0.25 mg/kg): 5.7 µM·h
- Kp ([5]; muscle, 0.25 mg/kg): 6.4
- half-life ([5]; muscle, 0.25 mg/kg): 204 h
- AUC(0-inf) ([5]; muscle, 1 mg/kg): 17.3 µM·h
- Kp ([5]; muscle, 1 mg/kg): 0.9
- half-life ([5]; muscle, 1 mg/kg): 112 h
- AUC(0-inf) ([5]; plasma, 0.25 mg/kg): 0.9 µM·h
- Kp ([5]; plasma, 0.25 mg/kg): 1
- half-life ([5]; plasma, 0.25 mg/kg): 96 h
- AUC(0-inf) ([5]; plasma, 1 mg/kg): 19.4 µM·h
- Kp ([5]; plasma, 1 mg/kg): 1
- half-life ([5]; plasma, 1 mg/kg): 267 h
- AUC(0-inf) ([5]; spleen, 0.25 mg/kg): 103 µM·h
- Kp ([5]; spleen, 0.25 mg/kg): 117
- half-life ([5]; spleen, 0.25 mg/kg): 248 h
- AUC(0-inf) ([5]; spleen, 1 mg/kg): 107 µM·h
- Kp ([5]; spleen, 1 mg/kg): 5.5
- half-life ([5]; spleen, 1 mg/kg): 131 h
- AUC(0-inf) ([5]; whole blood, 0.25 mg/kg): 46.4 µM·h
- Kp ([5]; whole blood, 0.25 mg/kg): 52.8
- half-life ([5]; whole blood, 0.25 mg/kg): 182 h
- AUC(0-inf) ([5]; whole blood, 1 mg/kg): 92 µM·h
- Kp ([5]; whole blood, 1 mg/kg): 4.8
- half-life ([5]; whole blood, 1 mg/kg): 173 h
Compound: CC(C)C[C@H](NC(=O)[C@H](Cc1ccccc1)NC(=O)c1cnccn1)B(O)O [Bortezomib]
- clearance [2]: 0.28 mL/min
- Renal clearance contribution to elimination [3]: approximately 25%
- Plasma protein unbound fraction (fu) ([4]; fixed in PBPK model): 0.17
- Binding to plasma proteins ([4]; linear binding at therapeutic concentrations): approximately 83%
- Induction or inhibition of enzymes responsible for its elimination [6]: not an inducer or inhibitor

From publication PMC4620045 (Journal of pharmacokinetics and pharmacodynamics, 2015)
